Laboratory results published in patent publication US10242153B2, “Method for determining the risk profile of neoplastic tissue” (NOVAZOI THERANOSTICS, priority 2014, dated 2019).

Columns and labels:
[1] = tested on: MCF-10A near normal breast epithelial cells; test: Spindle multipolarity and cell death, MCF-10A cells; format: cell-based; conditions: same concentration (10 μM)
[2] = tested on: MDA-MB-231 breast cancer cells; test: Spindle multipolarity and cell death, MDA-MB-231 cells; format: cell-based, human; conditions: 18 h, 10 μM
Method: To investigate a possible role for centrosome declustering drugs (such as brominated noscapines) to induce high-grade spindle multipolarity leading to cell death during mitosis, MDA-MB-231 breast cancer cells were treated with brominated noscapine. “Scattering” of amplified centrosomes in MDA-MB-231 breast cancer cells upon treatment with brominated noscapine was observed (data not shown). […] Based upon this metaphasic occurrence of cell death, this caspase-mediated cellular demise reflects a “metaphase catastrophe”.

[3] = tested on: ZR-75-30 cells; test: Boyden chamber invasion assay, ZR-75-30 cells; format: cell-based; conditions: aphidicolin-treated cells
Method: Trajectories of 10 cells each were captured over 18 h with 108 images per movie (6 frames/h). Data were analyzed using Volocity3.0 software (Improvision, Coventry, UK), whereby average net displacement, displacement rate and velocity measurements were generated for the identified cell tracks with respect to cell centroids. Quantitation of net displacement (Panel A), displacement rate (Panel B) and track velocity (Panel C) for cells with 1 and >2 centrosomes are shown as bar graphs. […] Panel E depicts a bar graph showing quantitation of migration rate of treated and untreated ZR-75-30 cells in a wound healing assay. Panel F depicts a bar graph showing the number of migrated cells in a Boyden chamber assay performed with aphidicolin-treated (APD) and untreated (C) ZR-75-30 cells.
(§1) To assess the migratory capacity of aphidicolin treated cells (˜60% cells harboring extra centrosomes) as compared to control cells, a a classical wound healing assay was performed.

[4] = tested on: ZR-75-30 cells; test: Wound healing assay, ZR-75-30 cells; format: cell-based; conditions: aphidicolin-treated cells; control 40 h
Method: as §1

[5] = tested on: ZR-75-30 cells; test: Induction of extra centrosomes and markers in ZR-75-30 cells by aphidicolin; format: cell-based
Method: Next, centrosome amplification was evaluated to determine the extent to which it directly and independently impacts the migration potential of a mildly aggressive cell line, ZR-75-30. […] In particular, it was of interest to evaluate whether generation of extra centrosomes (by genetic and pharmacological means) impacts migration and invasion kinetics by experimentally inducing centrosome amplification in these cells by aphidicolin treatment (5 μg/ml for 24 h).
Upon treatment with aphidicolin, centrosome amplification was confirmed by immunofluorescence staining for γ-tubulin (green) (data not shown) and changes in γ-tubulin and centrin levels detectable by Western blot analysis.
Accordingly, these cells can be pharmacologically manipulated with aphidicolin to generate extra centrosomes. […] Following aphidicolin wash-out, cells were stained using anti-centrin-2 antibodies to verify extra centrosomes by immunofluorescence confocal microscopy. About ˜60% ZR-75-30 cells generated extra centrosomes (6-8 per cell) and were evaluated for their sensitivity to the three drugs, griseofulvin, bromonoscapine, and PJ34, and compared with parent ZR-75-30 cells with normal centrosomes.

[6] = tested on: BT-549 breast cancer cells; conditions: BT-549 cells with amplified centrosomes; cited from earlier work
[7] = molecular target: KIFC1 (Homo sapiens, UniProt Q9BW19); conditions: ATP-competitive and MT-noncompetitive; cited from earlier work
KIFC1, sequence (Q9BW19 whole entry): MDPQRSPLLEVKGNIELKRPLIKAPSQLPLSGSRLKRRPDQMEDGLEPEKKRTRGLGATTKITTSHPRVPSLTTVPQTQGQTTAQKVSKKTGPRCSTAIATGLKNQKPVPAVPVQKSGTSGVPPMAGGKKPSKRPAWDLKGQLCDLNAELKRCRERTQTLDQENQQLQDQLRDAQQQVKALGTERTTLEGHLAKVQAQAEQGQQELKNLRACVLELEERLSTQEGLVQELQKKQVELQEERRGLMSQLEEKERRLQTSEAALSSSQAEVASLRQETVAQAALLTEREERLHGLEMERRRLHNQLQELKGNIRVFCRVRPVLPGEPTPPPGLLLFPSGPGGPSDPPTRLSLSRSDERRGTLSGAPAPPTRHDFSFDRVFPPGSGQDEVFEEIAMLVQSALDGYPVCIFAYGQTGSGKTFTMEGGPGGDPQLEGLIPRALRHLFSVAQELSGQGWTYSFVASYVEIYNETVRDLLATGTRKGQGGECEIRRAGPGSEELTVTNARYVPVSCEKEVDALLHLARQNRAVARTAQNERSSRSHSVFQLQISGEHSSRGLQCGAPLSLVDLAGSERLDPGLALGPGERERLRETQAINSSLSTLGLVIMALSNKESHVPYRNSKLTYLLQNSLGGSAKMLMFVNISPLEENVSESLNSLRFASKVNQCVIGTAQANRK
KIFC1, sequence (P68363 whole entry partner): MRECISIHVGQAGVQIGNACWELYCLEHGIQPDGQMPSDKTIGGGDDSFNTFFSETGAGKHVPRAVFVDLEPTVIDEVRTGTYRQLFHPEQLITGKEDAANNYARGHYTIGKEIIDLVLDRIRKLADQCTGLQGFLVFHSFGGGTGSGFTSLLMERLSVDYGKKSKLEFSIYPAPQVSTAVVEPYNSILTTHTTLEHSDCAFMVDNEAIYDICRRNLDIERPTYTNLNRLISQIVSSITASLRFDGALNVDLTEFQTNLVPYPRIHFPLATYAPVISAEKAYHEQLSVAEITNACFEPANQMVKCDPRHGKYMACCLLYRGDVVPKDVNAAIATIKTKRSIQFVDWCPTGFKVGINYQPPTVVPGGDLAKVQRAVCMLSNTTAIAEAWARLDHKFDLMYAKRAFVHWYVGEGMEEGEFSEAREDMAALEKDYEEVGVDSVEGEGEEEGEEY
KIFC1, sequence (Q9BVA1 whole entry partner): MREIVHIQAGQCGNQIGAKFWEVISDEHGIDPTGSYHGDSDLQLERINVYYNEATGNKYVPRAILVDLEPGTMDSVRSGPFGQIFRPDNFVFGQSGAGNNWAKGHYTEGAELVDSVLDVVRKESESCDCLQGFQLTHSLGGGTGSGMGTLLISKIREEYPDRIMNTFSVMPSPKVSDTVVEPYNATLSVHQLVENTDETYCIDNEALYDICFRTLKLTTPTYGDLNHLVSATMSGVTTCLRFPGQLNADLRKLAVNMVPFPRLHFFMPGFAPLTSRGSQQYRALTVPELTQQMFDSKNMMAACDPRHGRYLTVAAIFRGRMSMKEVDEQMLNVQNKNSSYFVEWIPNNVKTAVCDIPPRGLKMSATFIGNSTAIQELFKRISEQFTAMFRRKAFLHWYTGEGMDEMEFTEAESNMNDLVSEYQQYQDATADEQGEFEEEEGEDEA

In the case of brominated noscapine, the “spindle multipolarity and cell death” value [1] is reported as “did not exhibit any multipolarity or cell death” and the “spindle phenotype and cell death” value [2] is reported as “highly aberrant multipolar spindles that succumb to cell death”.
With C[C@@]1(CO)[C@H](O)CC[C@@]2(C)[C@H]1CC[C@H]1C[C@@H]3C[C@@]12CC[C@]3(O)CO [aphidicolin] the invasion capacity [3] was “increase in invasion capacity”, the “time to fill the scratch wound” value [4] was 18 h and the “cells harboring extra centrosomes” value ([5]; 5 μg/ml for 24 h) was ~60%. The “extra centrosomes per cell” value ([5]; 24 h treatment, after wash-out) was 6-8 per cell and the “vimentin levels (immunoblot)” value ([5]; following aphidicolin treatment) was “significant increase in vimentin levels”.
For CCCc1cc(C(=O)N[C@H](Cc2ccc(-c3cccc(OC(F)(F)F)c3)nc2)C(=O)N[C@@H]2CCNC2)sc1C [AZ82], the centrosome declustering [6] is given as “causes centrosome declustering” and the Ki [7] is given as 43 nM.
